# System: Ctenocephalides felis
# Assay: Contact activity of compounds against fleas (Method B)
# Conditions: adult fleas, treated filter paper; 72 hours assessment; test concentration of 100 ppm or less; versus untreated controls
# Procedure: METHOD B: Screening Method to test Contact Activity of Compounds Against Fleas
# A solution of the test compound was dispensed, using a pipette, onto filter paper placed into a glass vial. The filter paper was allowed to dry before infesting each vial with 10 adult Ctenocephalides felis. The treated Ctenocephalides felis were held in a controlled environment (24° C., 90-95% relative humidity) and assessment was performed at 24, 48 and 72 hours after application in comparison with untreated controls.
compound,measurement,value
"CSCCNC(=O)c1ccc(C2=NOC(c3cc(C(F)(F)F)cc(C(F)(F)F)c3)(C(F)(F)F)C2)n2cccc12 (stereo not shown) [Compound 1.009, 5-[5-(3,5-Bistrifluoromethylphenyl)-5-trifluoromethyl-4,5-dihydroisoxazol-3-yl]-indolizine-8-carboxylic acid (2-methylthioethyl)-amide]","control (Ctenocephalides felis, contact)",at least 80%

# Source: patent US9776999B2, “Antiparisitic dihydroazole compounds and compositions comprising same” (MERIAL, INC., priority 2009, dated 2017)
